US20040191240A1, “Composition and method for nerve regeneration” (priority 2003, published 2004)
Where no end group is shown, it is not given here.

Columns and labels:
[1] = system: RhoA; test: Affinity-precipitation of GTP-RhoA in cerebellar neurons; type: cell-based, mouse; conditions: MAG-Fc 25 μg/ml, Nogo peptide 4 μM
Experimental: 293 cells were transfected with pcDNA3 vectors containing wild type RhoA whose NH2-terminus is tagged with HA (Yamashita, T. et al., Neuron. 24:585-593, 1999) and/or full-length human p75 by lipofection using Lipofectamine 2000 (Gibco BRL). Cerebellar neurons from P9 mice were isolated as described previously (Cai et al, Neuron, 22:89-101, 1999). Cells were lysed in 50 mM Tris (pH 7.5), 1% Triton X-100, 0.5% sodium deoxycholate, 0.1% SDS, 500 mM NaCl, 10 mM MgCl2, with leupeptin and aprotinin, each at 10 μg/ml. Cell lysates were clarified by centrifugation at 13,000×g at 4° C. for 10 min, and the supernatants were incubated with the 20 μg of GST-Rho binding domain of Rhotekin beads (Upstate Biotech.) at 4° C. for 45 min. The beads were washed 4 times with washing buffer (50 mM Tris (pH 7.5) containing 1% Triton X-100, 150 mM NaCl, 10 mM MgCl2, 10 μg/ml each of leupeptin and aprotinin). Bound Rho proteins were detected by Western blotting using a monoclonal antibody against RhoA (Santa Cruz Biotechnology).
Amino-terminally FLAG-tagged human p75 or the deletion mutants of p75 ICD were cloned into pcDNA3.1 expression plasmid, and were transfected with 293T cells. […] Bound Rho proteins were detected by Western blotting using a monoclonal antibody against RhoA (Santa Cruz Biotechnology).

[2] = target: T1, interaction of p75 with Rho GDI (Homo sapiens, UniProt P08138); test: Co-immunoprecipitation of p75 with Rho GDI or RhoA in transfected N1E-115 cells; type: cell-based; conditions: N1E-115 cells transfected with FLAG-tagged p75; Nogo peptide 4 μM, MAG-Fc 25 μg/ml, NGF 100 ng/ml
T1 construct: expressed in transfected cells; host or cells: N1E-115
T1 sequence (P08138 29-427): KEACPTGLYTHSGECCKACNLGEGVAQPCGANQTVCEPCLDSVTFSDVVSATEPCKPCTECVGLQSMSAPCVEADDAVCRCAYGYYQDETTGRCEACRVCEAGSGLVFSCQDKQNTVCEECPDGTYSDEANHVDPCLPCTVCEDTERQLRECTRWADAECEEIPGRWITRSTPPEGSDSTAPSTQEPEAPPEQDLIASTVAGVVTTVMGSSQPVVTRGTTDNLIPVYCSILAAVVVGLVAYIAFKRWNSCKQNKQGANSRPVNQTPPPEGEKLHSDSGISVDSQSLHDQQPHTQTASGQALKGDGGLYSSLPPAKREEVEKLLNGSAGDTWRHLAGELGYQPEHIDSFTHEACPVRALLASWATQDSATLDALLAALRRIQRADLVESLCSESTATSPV

[3] = target: T2, p75 (Mus musculus, UniProt Q9Z0W1); test: Co-precipitation of p75 with GST-Pep5; type: binding; conditions: lysates from post-natal cerebellum
T2 construct: was incubated with lysates prepared from post-natal cerebellum that abundantly express p75; from tissue; host or cells: post-natal cerebellum lysate
T2 sequence (Q9Z0W1 32-427): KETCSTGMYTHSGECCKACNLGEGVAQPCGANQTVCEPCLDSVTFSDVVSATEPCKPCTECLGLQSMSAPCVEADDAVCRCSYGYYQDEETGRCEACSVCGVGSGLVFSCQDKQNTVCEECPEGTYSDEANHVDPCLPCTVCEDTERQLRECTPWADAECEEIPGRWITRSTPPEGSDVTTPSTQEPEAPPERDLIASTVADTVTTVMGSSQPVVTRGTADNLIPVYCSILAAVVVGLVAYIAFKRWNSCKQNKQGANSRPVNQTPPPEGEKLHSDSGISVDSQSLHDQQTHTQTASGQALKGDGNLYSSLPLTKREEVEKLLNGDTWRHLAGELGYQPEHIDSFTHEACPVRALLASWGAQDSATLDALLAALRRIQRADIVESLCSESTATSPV

[4] = target: T3, association of p75 with Rho GDI (Homo sapiens, UniProt P08138); test: Co-precipitation of p75 with recombinant GST-Rho GDI or GST-RhoA; type: binding; conditions: for direct binding of recombinant protein to p75 precipitated from transfected 293T cells: RhoA in the GDP-bound, GTP-bound or nucleotide-depleted state
T3 construct: host or cells: 293T (p75)
T3 sequence (P08138 29-427): T1 sequence (P08138 29-427)

[5] = target: T4, recombinant human p75-Fc chimera (Homo sapiens, UniProt P08138); test: Co-precipitation of recombinant p75 and gangliosides; type: binding; conditions: precipitation with protein A sepharose, Western blot
T4 construct: Recombinant p75 extracellular domain fused to Fc purified from Sf21 cells; purchased Genzyme-Techne; host or cells: Sf21
T4 sequence (P08138 29-250 limits assumed): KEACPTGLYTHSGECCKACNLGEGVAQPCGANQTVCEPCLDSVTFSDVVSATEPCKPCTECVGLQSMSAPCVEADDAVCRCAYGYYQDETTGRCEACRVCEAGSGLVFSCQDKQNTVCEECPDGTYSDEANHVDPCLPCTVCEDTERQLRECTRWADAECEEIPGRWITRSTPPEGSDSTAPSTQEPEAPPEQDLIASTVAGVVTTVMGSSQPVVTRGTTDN
Experimental: Recombinant human p75-Fc chimera (1 μg; Genzyme-Techne) and 1 μg of purified ganglioside GT1b (>98% purity, Seikagaku Co.) were incubated in 200 μl 0.025% Tween20/PBS for 2 h, and p75 was precipitated using proteinA sepharose (Amersham Pharmacia Biotech). The resultant precipitates were electrophoretically transferred to polyvinylidene difluoride membranes after SDS-PAGE with 7% gels and were immunoblotted with anti GT1b antibody (IgM, Seikagaku Co.) or anti p75 antibody.

[6] = system: N1E-115 cells; test: Morphological analysis of N1E-115 cells; type: cell-based; conditions: for cell population with long neurites / neurite formation: transfection, 48 h, Y-27632 10 μM for 30 minutes
Experimental: N1E-115 cells were transfected with GFP, GFP-full-p21 or GFP-ΔNLS-p21, and cultured in serum-starved condition for 5 hours. Then, the medium was replaced with DMEM containing 10% fetal bovine serum. The cells were fixed at 48 hours after transfection. The morphology of the cells was categorized into 3 groups; neurite positive cells, round cells and the other cells. The cells with longer neurites than their soma were defined as neurite positive cells. The other cells had various features including microspikes, ruffles and a flattened appearance.

[7] = target: T5, myc-Rho-kinase (Bos taurus, UniProt Q28021); test: Rho-kinase kinase assay with lysates of transfected 293T cells; type: cell-based
T5 sequence (Q28021 whole entry): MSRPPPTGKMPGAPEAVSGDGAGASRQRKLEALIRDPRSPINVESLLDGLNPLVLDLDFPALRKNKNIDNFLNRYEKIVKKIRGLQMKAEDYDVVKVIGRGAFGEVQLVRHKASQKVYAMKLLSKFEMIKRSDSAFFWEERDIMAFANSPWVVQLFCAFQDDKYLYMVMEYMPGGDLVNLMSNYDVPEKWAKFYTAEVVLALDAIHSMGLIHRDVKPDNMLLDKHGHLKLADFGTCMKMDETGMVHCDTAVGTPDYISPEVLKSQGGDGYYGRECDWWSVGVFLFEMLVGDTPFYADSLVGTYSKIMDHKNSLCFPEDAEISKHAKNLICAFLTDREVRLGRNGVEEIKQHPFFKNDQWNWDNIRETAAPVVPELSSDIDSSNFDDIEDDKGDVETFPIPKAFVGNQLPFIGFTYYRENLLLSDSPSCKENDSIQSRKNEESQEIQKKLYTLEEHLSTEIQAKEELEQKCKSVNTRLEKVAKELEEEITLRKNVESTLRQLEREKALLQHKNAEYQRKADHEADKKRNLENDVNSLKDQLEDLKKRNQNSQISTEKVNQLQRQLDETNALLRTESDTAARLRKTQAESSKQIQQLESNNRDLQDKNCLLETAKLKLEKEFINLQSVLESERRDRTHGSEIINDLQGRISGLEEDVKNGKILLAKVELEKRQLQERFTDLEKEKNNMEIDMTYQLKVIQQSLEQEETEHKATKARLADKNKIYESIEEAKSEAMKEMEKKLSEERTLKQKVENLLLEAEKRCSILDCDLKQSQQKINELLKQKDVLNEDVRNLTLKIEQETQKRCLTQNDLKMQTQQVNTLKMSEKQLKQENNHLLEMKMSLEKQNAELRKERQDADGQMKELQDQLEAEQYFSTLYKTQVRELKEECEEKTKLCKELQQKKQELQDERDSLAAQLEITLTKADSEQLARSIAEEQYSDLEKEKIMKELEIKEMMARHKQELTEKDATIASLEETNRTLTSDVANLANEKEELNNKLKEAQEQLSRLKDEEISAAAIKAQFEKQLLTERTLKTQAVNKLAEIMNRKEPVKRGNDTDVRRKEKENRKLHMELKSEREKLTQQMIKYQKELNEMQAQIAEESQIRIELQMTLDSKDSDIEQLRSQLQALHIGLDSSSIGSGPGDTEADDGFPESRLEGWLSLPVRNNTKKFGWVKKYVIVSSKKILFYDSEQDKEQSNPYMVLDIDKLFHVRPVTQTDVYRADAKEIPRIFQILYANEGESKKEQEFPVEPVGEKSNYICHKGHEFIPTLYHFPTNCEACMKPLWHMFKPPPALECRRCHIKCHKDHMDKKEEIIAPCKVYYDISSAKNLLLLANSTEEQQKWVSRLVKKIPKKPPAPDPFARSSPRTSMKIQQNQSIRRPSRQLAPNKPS
Experimental: Cells were lysed with lysis buffer (50 mM Tris-HCl (pH 7.5), 150 mM NaCl, 10% glycerol, 1% Nonidet-P40 and protease inhibitor cocktail). The kinase assay was carried out using the lysates.

[8] = system: N1E-115 cells; test: Growth, cyclin D3 and pRb in N1E-115 cells; type: cell-based; conditions: for phosphorylation state of pRb / protein level of cyclin D3: Western blot; for growth of N1E-115 cells: after transfection
Experimental: (§1) NIH3T3 cells, N1E-115 cells and 293T cells were maintained in DMEM containing 10% fetal bovine serum. Lipofectamine 2000 (Invitrogen) was used for transfection. For the stress fiber formation assay, NIH3T3 cells were cultured in serum-free medium for 16 hours after transfection. Stress fiber formation was evoked by incubating the cells with 10% serum for 10 minutes. Hippocampal neurons were prepared from […], as previously described (Neumann, H. et al., Science. 269:549-552, 1995). Briefly, hippocampi were dissected and the meninges removed. The trimmed tissue was dissociated by trituration. The dissociated cells were plated on dishes pre-coated with poly-L-lysine (Sigma), and cultured in DMEM containing 10% fetal bovine serum for 24 hours. Then, the medium was replaced with DMEM with B27 supplement (Invitrogen), and the cells were transfected with GFP or GFP-ΔNLS-p21. Neuronal morphology was estimated at 24 hours after the transfection.

[9] = system: NIH3T3 cells; test: Stress fiber formation assay; type: cell-based; conditions: serum-starved 16 hours, 10% serum 10 minutes
Experimental: as §1

[10] = target: T5, myc-Rho-kinase; test: Co-immunoprecipitation of p21 constructs and Rho-kinase in 293T cells; type: cell-based; conditions: 293T cells cotransfected
Experimental: 293T cells were transfected with myc-Rho-kinase in combination with GFP-full-p21 or GFP-ΔNLS-p21. At 48 hours after transfection, the cells were lysed with 1 ml of lysis buffer (50 mM Tris-HCl (pH 7.5), 150 mM NaCl, 10% glycerol, 0.5% Nonidet-P40 including protease inhibitor cocktail tablets (Roche). The cell lysates were centrifuged at 13,000×g for 20 minutes, and the supernatant was collected. Immunoprecipitations were performed for 2 hours at 4° C. using an anti-p21 mouse monoclonal antibody (Santa Cruz Biotechnology) and 0.75 ml of the supernatant. The immunocomplexes were collected with protein G-Sepharose (Amersham Pharmacia Biotech) slurry (50% v/v), washed 4 times with lysis buffer, and subjected to SDS-PAGE. They were transferred to the polyvinylidene difluoride membranes and probed with the anti-myc rabbit polyclonal antibody (Santa Cruz Biotechnology). Interaction of endogenous proteins in N1E-115 cells was assessed in the same way using anti Rho-kinase antibody.

[11] = system: hippocampal neurons; test: Neurite outgrowth and branching of hippocampal neurons; type: cell-based; conditions: rat E18, 24 hours after transfection
Experimental: as §1
Cultures of the hippocampal neurons from rat E18 embryos were used. […] Twenty-four hours after transfection, the cells were fixed and immunolabeled with β-tubulin III. The total neurite length per neuron, the axonal length, defined as the length of the longest neurite per neuron, the number of primary processes originating from the neuronal somata, and the number of branch points per neuron were determined (Neumann, H. et al., J. Neurosci. 22:854-862, 2002).

[12] = system: cerebellar neurons; test: Neurite outgrowth assay, post-natal cerebellar neurons; type: cell-based, mouse; conditions: cells transfected with myc-tagged Rho GDI

NGF: Nerve growth factor [reference compound]
RhoA activity in cerebellar granule neurons from wild type mice (P9) [1]: rapidly inhibits RhoA activity
interaction of p75 with Rho GDI and RhoA [2]: abolished the interaction of p75 with Rho GDI as well as RhoA

GST-Pep5: Glutathione S-transferase-fusion protein containing Pep5 (CFFRGGFFNHNPRYC; cysteine pairing not given here; also: GST fusion protein)
co-precipitation of p75 with GST-Pep5 [3]: presence of a protein corresponding to p75

CFFRGGFFNHNPRYC [Pep5]
association of p75 with Rho GDI ([4]; 1 μM GST-Rho GDI, Pep5 at the indicated concentrations): inhibited the association of p75 with Rho GDI dose dependently

GT1b
association of ganglioside with recombinant p75 extracellular domain fused to Fc [5]: binds to p75 in a manner that is SDS-resistant

GD1a
association of ganglioside with recombinant p75 extracellular domain fused to Fc [5]: did not see any interaction

C[C@@H](N)[C@H]1CC[C@H](C(=O)Nc2ccncc2)CC1 [Y-27632, reference compound]
cell population with long neurites / neurite formation [6]: induced significant neurite formation
inhibition at 10 µM ([7]; HEK-293T, Y-27632 10 μM for 30 minutes, read-out: (compared to the original) inhibition of Rho-kinase activity): 51.9%

GM1
association of ganglioside with recombinant p75 extracellular domain fused to Fc [5]: no interaction

C[S+](C)[O-] [DMSO, reference compound]
phosphorylation state of pRb [8]: hyperphosphorylated pRb became undetectable
protein level of cyclin D3 [8]: strongly increased

ΔNLS-p21: GFP fused p21 with loss of nuclear localization signal (aa 1-140) expressed from pEGFP-ΔNLS-p21
phosphorylation state of pRb [8]: hyperphosphorylated pRb remained predominant
protein level of cyclin D3 [8]: no change in the expression
growth of N1E-115 cells [8]: proliferated until 48 hours after transfection
cells that extended long neurites ([6]; 48 hours after transfection): more than 45%
increase of cells with long neurites compared to the control ([6]; 48 hours after transfection): 3.1 -fold
formation of actin stress fibers after the addition of serum [9]: had little stress fiber formation
co-immunoprecipitation of myc-tagged Rho-kinase with anti-p21 antibody [10]: efficiently precipitated myc-tagged Rho-kinase
number of primary processes [11]: no change
number of branch points per neuron ([11]; control 1.3): 2.6 (±0.3 SEM)
axonal length (longest neurite per neuron) ([11]; control 66.3): 162.9 μm
total neurite length per neuron ([11]; control 135.9): 307.2 μm

Rho GDI: Rho GDP dissociation inhibitor; recombinant GST-Rho GDI or myc-tagged Rho GDI over-expressed in neurons
inhibitory effects of MAG and the Nogo peptide on neurite outgrowth on over-expression of Rho GDI [12]: abolished these inhibitory effects
direct binding of recombinant protein to p75 precipitated from transfected 293T cells [4]: bound to p75

RhoA: bacterially produced RhoA (GST-RhoA)
direct binding of recombinant protein to p75 precipitated from transfected 293T cells [4]: no interaction between them in any nucleotide state

full-p21: GFP fused full length p21 (aa 1-164) expressed from pEGFP-full-p21
protein level of cyclin D3 [8]: strongly increased
growth of N1E-115 cells [8]: stopped proliferation
cell rounding ([6]; 48 hours after transfection): decreased cell rounding
cell population with long neurites / neurite formation [6]: no increase in the cell population that had long neurites
formation of actin stress fibers after the addition of serum [9]: Extensive actin stress fibers were observed
co-immunoprecipitation of myc-tagged Rho-kinase with anti-p21 antibody [10]: only a faint signal could be detected
Rho-kinase activity in transfected cells [7]: had no significant effect
